According to patent publication US20150094229A1, “METHODS FOR THE SCREENING OF ANT[…]” (priority 2005, published 2015):
Entries after “also recorded” stand apart in the source; their conditions may differ. Where a SMILES comes first, the peptide text is derived from it. Where no end group is shown, it is not given here. [ ]: non-standard residue; d: D form.

Key:
[1] = system: L,D-transpeptidase of E. faecium M512 (Ldtfm); assay: Standard radioactive exchange assay (Ac2-L-Lys-D-Ala and D-[14C]Ala); assay type: biochemical, Enterococcus faecium; settings: for use as donor: formation of radioactive peptides with D-[14C]Ala as the acceptor: 3 μg Ldtfm, 60 min, donor 1-5 mM
Source text: (§1) FIG. 9 (Ex FIG. 2). Identification and characterization of the L,D-transpeptidase of E. faecium M512. (A) Purification of the L,D-transpeptidase from an E. faecium M512 extract (lane 1) led to partial purification of a 48-kDa protein (lane 2). (B) The open reading frame for the 48-kDa protein was identified based on N-terminal sequencing ([…] [SEQ ID No 20], underlined) and similarity searches in the partial genome sequence of E. faecium. The partially purified 48-kDa protein corresponded to a proteolytic fragment since the sequence encoding its N-terminus was not preceded by a translation initiation codon. The upstream sequence contained a single likely translation initiation site (ACTTAAggag[…]atg [SEQ ID No 21]), consisting of an ATG initiation codon preceded by a putative ribosome binding site (lower case). The proteolytic cleavage removed the first 118 residues of the protein, including a cluster of hydrophobic residues at positions 13 to 28 (italicized), which could correspond to a membrane anchor. The C-terminus of Ldtfm (positions 340 to 466; bold) was related to a family of 341 sequences from eubacteria appearing in the Protein Families Database of Alignments under the pfam accession number PF03734. Ser439 and Cys442 (asterisks) are potential catalytic residues. (C) The portion of the open reading frame encoding the soluble protein partially purified form the E. faecium extract (positions 119 to 466) was cloned into E. coli and Ldtfm was purified with an overall yield of 3 mg per liter of culture. (D) The purified protein was active in an exchange reaction which assays for the capacity of the enzyme to catalyze cleavage of the L-Lys-D-Ala peptide bond of the model donor dipeptide substrate N^α,N^ε-diacetyl-L-lysyl-D-alanine (Ac2-L-Lys-D-Ala) and formation of a peptide bond between Ac2-L-Lys and D-[^14C]Ala. […] (F) The exchange assay was also performed with non-radioactive 2-amino and 2-hydroxy acids based on detection of the products by mass spectrometry and determination of their structure by tandem mass spectrometry, as exemplified by the fragmentation of Ac2-L-Lys-D-Met (m/z of 362.24). Loss of a C-terminal D-Met and of additional H2O led to ions at m/z 213.14 and 185.14, respectively. Ions at m/z 84.10 and 126.11 correspond to the immonium of L-Lys and its acetylated form, respectively.
Preferably, the L,D-transpeptidase activity is assessed by performing a standard exchange assay that is based on incubation of non-radioactive Ac2-L-Lys-D-Ala and D-[^14C]Ala and determination of Ac2-L-Lys-D[^14C]Ala formed by the L,D-transpeptidase catalytic activity, such as disclosed by Mainardi et al. (J. L. Mainardi et al., J. Biol. Chem. 277, 35801 (2002)) as well as in the examples herein.
In an illustrative embodiment of said standard exchange assay, a reaction mixture is provided, which reaction mixture contains (i) purified L,D-transpeptidase, (ii) Ac2-L-Lys-D-Ala, (iii) D-[^14C]Ala and (iv) optionally the candidate inhibitor compound. Then the enzyme reaction is performed until completion, generally during a time period of […], most preferably […], at a temperature range comprised between 36° C. and 38° C., advantageously between 36.5° C. and 37.5° C., most preferably at 37° C. Then, the enzyme reaction is stopped, for example by boiling the resulting reaction product mixture for a time period sufficient to inactivate the enzyme, such as for a period of time ranging from 3 min to 20 min, most preferably a period of time of about 15 min.
Then, the resulting reaction product mixture is centrifuged and a sample collected from the supernatant of centrifugation is analysed by chromatography, preferably by carrying out a reverse phase high-pressure liquid chromatography (rpHPLC), most preferably with isocratic elution.
Detection of the labeled reaction product resulting from the L,D-transpeptidase catalytic activity may be performed simultaneously with said chromatographic step. […]

Ldtfm [2] = assay: Exchange assay with non-radioactive 2-amino and 2-hydroxy acid acceptors, products detected by mass spectrometry; assay type: biochemical, Enterococcus faecium; settings: for Product Relative intensity (%): ionic current intensity (product/product + substrate), donor Ac2-L-Lys-D-Ala 0.3 mM, acceptor 0.3 mM, Ldtfm (3 g), 1 h at 37° C.; for use as acceptor substrate in the exchange reaction with Ac2-L-Lys-D-Ala as the donor: result in words
Source text: as §1
To gain insight in the activity of Ldtfm, various 2-amino and 2-hydroxy acids were tested as potential acceptor substrates (Table 2) in an exchange reaction using the model dipeptide substrate Ac2-L-Lys-D-Ala as the donor (FIG. 9F). […] Hydrolysis of the C-terminal D-Ala of Ac2-L-Lys-D-Ala was not detected in the presence of a suitable acceptor substrate, indicating a biosynthetic function for Ldtfm, in contrast to the previously characterized L,D-carboxypeptidase involved in peptidoglycan recycling in E. coli (Templin et al., 1999).

[3] = target: T1, D-aspartate ligase (membrane or cytoplasmic extracts of E. faecium D359V8) (Enterococcus faecium, UniProt H8L902); assay: D-aspartate ligase assay (in vitro addition of D-aspartate onto UDP-MurNac-pentapeptide); assay type: biochemical; settings: 60 μg membrane or cytoplasmic extracts, 2 hours at 37° C.
T1 construct: membrane or cytoplasmic extracts (60 μg); endogenous in cells; host or cells: Enterococcus faecium D359V8, crude membrane and cytoplasmic extracts
Procedure: FIG. 2. […] Crude cytoplasmic extract (60 μg of protein) of E. faecium D359V8 were incubated for 2 h with UDP-MurNac-pentapeptide ([…]), D-[^14C]aspartic acid (0.11 mM, 55 mCi/mmol), ATP (20 mM) and MgCl2 (50 mM). D-[^14C]aspartic acid was separated from [^14C]UDP-MurNac-hexapeptide by descending paper chromatography. […] (+) presence of cytoplasmic extracts; (−) absence of crude extracts.
The assay was performed in a total volume of 25 μl containing Tris-Hcl (100 mM, pH 8.5), MgCl2 (50 mM), ATP (20 mM), D-[^14C]aspartic acid (0.11 mM, 55 mCi/mmol, Isobio, Fleurus, Belgium), UDP-MurNac-pentapeptide (0.15 mM) purified from S. aureus as previously described (Billot-Klein et al., 1997), and membrane or cytoplasmic extracts (60 μg). The reaction mixture was incubated 2 h at 37° C. and the reaction was stopped by boiling the samples for 3 min. […] The products of the reaction were also separated by reverse phase high-pressure liquid chromatography (rpHPLC) on a Hypersil C18 column ([…], 4.6×250 […], Interchrom, Montlugon, France) at a flow rate of 0.5 ml/min using isocratic elution (10 mM ammonium acetate, pH 5.0) and detected by the absorbance at 262 nm and liquid scintillation with a Radioflow Detector (LB508; Perkin Elmer, Courtaboeuf, France) coupled to the HPLC apparatus (L-62000A; Merck, Nogent-Sur-Marne, France). […]

E. faecium M512 = settings: mutant E. faecium M512; cited from earlier work
Ldtfm [4] = assay: In vitro transpeptidation (formation of dimers from monomeric muropeptides, mass spectrometry); assay type: biochemical, Enterococcus faecium; settings: pool of three muropeptides, Ldtfm 3 μg, 2 h at 37° C.
Procedure: FIG. 10 (Ex FIG. 3). […] (A) Ldtfm was incubated with a pool of three monomeric muropeptides containing the disaccharide GlcNAc-MurNAc substituted by three different stem peptides. […] Tetrapeptide-iAsn, L-Ala-D-iGln-L-(M-D-iAsn)Lys-D-Ala; Tripeptide-iAsn, L-Ala-D-iGln-L-(M-D-iAsn)Lys; Tetrapeptide, L-Ala-D-iGln-L-Lys-D-Ala. (B) Fragmentation was performed on the muropeptide lactoyl dimer at m/z 1118.5 which was obtained by ammonium hydroxide treatment of the dimer with a monoisotopic mass of 1927.88. The treatment cleaved off the disaccharide and converted D-iAsn into D-iAsp. (C) Structure of the dimer and inferred fragmentation pattern. […]
To assay for in vitro transpeptidation, the L,D-transpeptidase (3 μg) was incubated with the momomeric muropeptides GlcNAc-MurNAc-L-Ala-D-iGln-L-(M-D-iAsn)Lys-D-Ala (25 nmoles), GlcNAc-MurNAc-L-Ala-D-iGln-L-(M-D-iAsn)Lys (5 nmoles) and GlcNAc-MurNAc-L-Ala-D-iGln-L-Lys-D-Ala (5 nmoles) for 2 h at 37° C. in 25 μl of 5 mM sodium phosphate buffer (pH 6.0). The reaction was stopped by boiling the sample for 3 min and the mixture was centrifuged (10,000×g, 2 min). […] For tandem mass spectrometry analysis, the remaining of the reaction mixture was treated with ammonium hydroxyde to cleave the ether link internal to MurNAc (Arbeloa et al., 2004). The conditions for fragmentation of the resulting lactoyl-peptides with N2 as the collision gas were as previously described (Arbeloa et al., 2004).

CC(=O)NCCCC[C@H](NC(C)=O)C(=O)N[C@H](C)C(=O)O [Ac2-L-Lys-D-Ala, N^α,N^ε-diacetyl-L-lysyl-D-alanine] (Ac-Lys(Ac)-[dA]-OH)
use as donor: formation of radioactive peptides with D-[14C]Ala as the acceptor [1]: used as donors

C[C@@H](O)C(=O)O [D-lactic acid]
Product Relative intensity (%) (Ldtfm [2]): 37% | use as acceptor substrate in the exchange reaction with Ac2-L-Lys-D-Ala as the donor (Ldtfm [2]): Formation of depsipeptides

O=C(O)C[C@@H](O)C(=O)O [D-malic acid]
Product Relative intensity (%) (Ldtfm [2]): 10% | use as acceptor substrate in the exchange reaction with Ac2-L-Lys-D-Ala as the donor (Ldtfm [2]): Formation of depsipeptides

NCC(=O)O [Glycine]
Product Relative intensity (%) (Ldtfm [2]): 15%

N[C@@H](CC(=O)O)C(=O)O [L-[^14C]aspartate]
formation of hexapeptide when D-[14C]aspartate is replaced [3]: No hexapeptide was formed

CC(=O)N[C@H]1[C@@H](OP(=O)(O)OP(=O)(O)OC[C@H]2O[C@@H](n3ccc(=O)[nH]c3=O)[C@H](O)[C@@H]2O)O[C@H](CO)[C@@H](O)[C@@H]1O[C@H](C)C(=O)N[C@@H](C)C(=O)N[C@H](CCC(=O)N[C@@H](CCCCN)C(=O)N[C@H](C)C(=O)N[C@H](C)C(=O)O)C(=O)O [UDP-MurNAc-pentapeptide, UDP-N-acetylmuramyl-L-Ala-D-iGlu-L-Lys-D-Ala-D-Ala]
use as donor: formation of radioactive peptides with D-[14C]Ala as the acceptor [1]: not detected

CC1(C)S[C@@H]2[C@H](NC(=O)[C@H](N)c3ccccc3)C(=O)N2[C@H]1C(=O)O [ampicillin]
inhibition of Ldtfm in the exchange assay ([1]; Ldtfm 3 μg, Ac2-L-Lys-D-Ala 0.3 mM, D-[14C]Ala 0.15 mM, various concentration of ampicillin): absence of inhibition; also recorded: not inhibited | minimal inhibitory concentration (E. faecium M512): > 2000 µg/mL

GlcNAc-MurNAc-L-Ala-D-iGln-L-(M-D-iAsn)Lys-D-Ala [tetrapeptide-iAsn]
use as donor in formation of dimers (Ldtfm [4]): formation of dimers

GlcNAc-MurNAc-L-Ala-D-iGln-L-Lys-D-Ala
use as acceptor in formation of dimers (Ldtfm [4]): not used as an acceptor | use as donor in formation of dimers (Ldtfm [4]): formation of dimers

GlcNAc-MurNAc-L-Ala-D-iGlu-L-(N^ε-D-iAsn)Lys-D-Ala [GlcNAc-MurNAc-tetrapeptide-iAsn]
use as donor: formation of radioactive peptides with D-[14C]Ala as the acceptor [1]: used as donors

GlcNAc-MurNAc-L-Ala-D-iGlu-L-(N^ε-D-iAsn)Lys-D-Ala-D-Ala [GlcNAc-MurNAc-pentapeptide-iAsn]
use as donor: formation of radioactive peptides with D-[14C]Ala as the acceptor [1]: not detected

L-Ala-D-iGlu-L-Lys-D-Ala (A[diGlu]K[dA]) [tetrapeptide]
use as donor: formation of radioactive peptides with D-[14C]Ala as the acceptor [1]: used as donors

L-Ala-D-iGlu-L-Lys-D-Ala-D-Ala [pentapeptide]
use as donor: formation of radioactive peptides with D-[14C]Ala as the acceptor [1]: not detected

N^α,N^ε-diacetyl-L-lysine-D-alanyl-D-alanine [Ac2-L-Lys-D-Ala-D-Ala]
use as donor: formation of radioactive peptides with D-[14C]Ala as the acceptor [1]: not detected

UDP-MurNAc-L-Ala-D-iGlu-L-Lys-D-Ala [UDP-MurNAc-tetrapeptide]
use as donor: formation of radioactive peptides with D-[14C]Ala as the acceptor [1]: used as donors
